For one assay, the target named is Alpha glucosidase (Homo sapiens, UniProt O43451+P10253+P14410+Q2M2H8). The assay can be described thus: Inhibition of alpha-glucosidase (unknown origin) using p-nitro-phenyl-alpha-D-glucopyranoside as substrate preincubated for 5 mins with substrate followed by enzyme addition measure after 15 mins by spectrophotometric method. It is filed as protein assay.
A short description of assay [1]: Antioxidant activity assessed as DPPH radical scavenging activity incubated for 30 mins under dark condition by spectrophotometric analysis. In kind it is functional. (The DPPH test is a chemical assay of radical scavenging.)
Assay [2] is described as follows: Antioxidant activity assessed as DPPH radical scavenging activity incubated for 30 mins under dark condition. In kind it is functional.

SMILES strings stand for the structures.

For `COC(=O)[C@]1(Cc2ccc(O)cc2)OC(=O)C(O)=C1c1ccc(O)cc1`, the figures for the IC50 (at Alpha glucosidase; in assay [1]) were 85.13 µM and 86 µM, respectively.
Consider `COC(=O)[C@]1(Cc2ccc3c(c2)CCC(C)(C)O3)OC(=O)C(O)=C1c1ccc(O)cc1`, for which the half-inhibitory concentration (IC50) (as a rule, the concentration needed to halve the response being measured) against Alpha glucosidase was determined as 47.33 µM; in assay [1] it was 97 µM.
For the compound `COC(=O)[C@@]1(O)OC(=O)C(Cc2ccc3c(c2)CCC(C)(C)O3)=C1c1ccc(O)cc1`, the IC50 at Alpha glucosidase is 10.3 µM; in assay [1], over 200 µM.
`CC1(C)CCc2cc(CC3=C(c4ccc(O)cc4)[C@@](O)(C(=O)O)OC3=O)ccc2O1`: the IC50 is 7.63 µM on Alpha glucosidase and over 200 µM in assay [1].
The matching figures for `CC1(C)CCc2cc(CC3OC(=O)C(O)=C3c3ccc(O)cc3)ccc2O1` (configuration not stated): 11.65 µM and 90 µM.
On to `CO[C@@H]1OC(=O)C(Cc2ccc(O)c(CC=C(C)C)c2)=C1c1ccc(O)cc1`, for which the figures for the half-inhibitory concentration (IC50) (against Alpha glucosidase; in assay [1]) were 9.98 µM and over 200 µM, respectively.
Take `COC(=O)[C@]1(Cc2ccc(O)c(CC=C(C)C)c2)OC(=O)C(OC)=C1c1ccc(O)cc1`: in assay [2], the IC50 amounted to 125 µM.
`COC(=O)[C@]1(Cc2ccc3c(c2)C[C@H](O)C(C)(C)O3)OC(=O)C(OC)=C1c1ccc(O)cc1`: the IC50 in assay [2] is over 500 µM.
Turning to `COC(=O)[C@]1(Cc2ccc3c(c2)C[C@@H](O)C(C)(C)O3)OC(=O)C(O)=C1c1ccc(O)cc1`, the IC50 against Alpha glucosidase stood at 110.27 µM; in assay [1], 135 µM.
As to `CC1(C)CCc2cc(CC3=C(c4ccc(O)cc4)C(O)OC3=O)ccc2O1` (configuration not stated), the IC50 against Alpha glucosidase is 13.36 µM; in assay [1], over 200 µM.
As for `CO[C@H]1OC(=O)C(Cc2ccc(O)c(CC=C(C)C)c2)=C1c1ccc(O)cc1`, the IC50 was 8.65 µM on Alpha glucosidase and over 200 µM in assay [1].
The matching figures for `COC(=O)[C@]1(Cc2ccc(O)c(CC=C(C)C)c2)OC(=O)C(O)=C1c1ccc(O)cc1`: 14.18 µM and 38 µM.
For the compound `CC(=O)N[C@@H](CS)C(=O)O` [ACETYLCYSTEINE], in assay [1], the IC50 stood at 85 µM.
As for `O=C1O/C(=C\c2ccc(O)cc2)C(O)=C1c1ccc(O)cc1` [ASPULVINONE E], the concentration for half-maximal inhibition (IC50) against Alpha glucosidase is over 400 µM; in assay [1], 106 µM.
Turning to `COC(=O)[C@]1(Cc2ccc3c(c2)C[C@H](C(C)(C)O)O3)OC(=O)C(O)=C1c1ccc(O)cc1` [BUTYROLACTONE IV], the values for the half-maximal inhibitory concentration (IC50) (against Alpha glucosidase; in assay [1]) were over 400 µM and 129 µM, respectively.

These data come from ChEMBL document CHEMBL4184116, “New butenolide derivatives from the marine sponge-derived fungus Aspergillus terreus” (Bioorg Med Chem Lett, 2018).
